Measured values as given in ChEMBL document CHEMBL2150993, “Substituted thiazoles VII. Synthesis and antitumor activity of certain 2-(substituted amino)-4-phenyl-1,3-thiazole analogs” (2012).

Columns and labels:
Type in all cases: functional
Details in all cases: at 10 µM
SK-MEL-2 = test: Growth inhibition of human SK-MEL-2 cells after 48 hrs by cell counting analysis
SF-268 = test: Growth inhibition of human SF268 cells after 48 hrs by cell counting analysis
HCT-116 = test: Growth inhibition of human HCT116 cells after 48 hrs by cell counting analysis
LOX IMVI = test: Growth inhibition of human LOXIMVI cells after 48 hrs by cell counting analysis
T47D = test: Growth inhibition of human T47D cells after 48 hrs by cell counting analysis
[1] = Growth inhibition of human NCI-ADR-RES cells after 48 hrs by cell counting analysis
PC-3 = test: Growth inhibition of human PC3 cells after 48 hrs by cell counting analysis
U-251 = test: Growth inhibition of human U251 cells after 48 hrs by cell counting analysis
K562 = test: Growth inhibition of human K562 cells after 48 hrs by cell counting analysis
MDA-MB-435 = test: Growth inhibition of human MDA-MB-435 cells after 48 hrs by cell counting analysis
TK-10 = test: Growth inhibition of human TK10 cells after 48 hrs by cell counting analysis
MOLT-4 = test: Growth inhibition of human MOLT4 cells after 48 hrs by cell counting analysis
UACC-257 = test: Growth inhibition of human UACC257 cells after 48 hrs by cell counting analysis
OVCAR-3 = test: Growth inhibition of human OVCAR3 cells after 48 hrs by cell counting analysis
HCT-15 = test: Growth inhibition of human HCT15 cells after 48 hrs by cell counting analysis
HT-29 = test: Growth inhibition of human HT-29 cells after 48 hrs by cell counting analysis
NCI-H522 = test: Growth inhibition of human NCI-H522 cells after 48 hrs by cell counting analysis
CAKI-1 = test: Growth inhibition of human Caki1 cells after 48 hrs by cell counting analysis
SK-MEL-5 = test: Growth inhibition of human SK-MEL-5 cells after 48 hrs by cell counting analysis
ACHN = test: Growth inhibition of human ACHN cells after 48 hrs by cell counting analysis
MDA-MB-468 = test: Growth inhibition of human MDA-MB-468 cells after 48 hrs by cell counting analysis
IGROV-1 = test: Growth inhibition of human IGROV1 cells after 48 hrs by cell counting analysis
OVCAR-8 = test: Growth inhibition of human OVCAR8 cells after 48 hrs by cell counting analysis
RXF 393 = test: Growth inhibition of human RXF393 cells after 48 hrs by cell counting analysis
KM12 = test: Growth inhibition of human KM12 cells after 48 hrs by cell counting analysis
UACC-62 = test: Growth inhibition of human UACC62 cells after 48 hrs by cell counting analysis
A549 = test: Growth inhibition of human A549 cells after 48 hrs by cell counting analysis
HCC 2998 = test: Growth inhibition of human HCC2998 cells after 48 hrs by cell counting analysis
BT-549 = test: Growth inhibition of human BT549 cells after 48 hrs by cell counting analysis
HOP-92 = test: Growth inhibition of human HOP92 cells after 48 hrs by cell counting analysis
NCI-H23 = test: Growth inhibition of human NCI-H23 cells after 48 hrs by cell counting analysis
OVCAR-5 = test: Growth inhibition of human OVCAR5 cells after 48 hrs by cell counting analysis
HL-60 = test: Growth inhibition of human HL60 cells after 48 hrs by cell counting analysis
RPMI-8226 = test: Growth inhibition of human RPMI8226 cells after 48 hrs by cell counting analysis
SNB-19 = test: Growth inhibition of human SNB19 cells after 48 hrs by cell counting analysis
NCI-H226 = test: Growth inhibition of human NCI-H226 cells after 48 hrs by cell counting analysis
M14 = test: Growth inhibition of human M14 cells after 48 hrs by cell counting analysis
SW-620 = test: Growth inhibition of human SW620 cells after 48 hrs by cell counting analysis
[2] = Growth inhibition of human NCI-322M cells after 48 hrs by cell counting analysis
CCRF-CEM = test: Growth inhibition of human CCRF-CEM cells after 48 hrs by cell counting analysis
SF-539 = test: Growth inhibition of human SF539 cells after 48 hrs by cell counting analysis
OVCAR-4 = test: Growth inhibition of human OVCAR4 cells after 48 hrs by cell counting analysis
MCF7 = test: Growth inhibition of human MCF7 cells after 48 hrs by cell counting analysis
MDA-MB-231 = test: Growth inhibition of human MDA-MB-231 cells after 48 hrs by cell counting analysis
SK-OV-3 = test: Growth inhibition of human SKOV3 cells after 48 hrs by cell counting analysis
SN12C = test: Growth inhibition of human SN12C cells after 48 hrs by cell counting analysis
SK-MEL-28 = test: Growth inhibition of human SK-MEL-28 cells after 48 hrs by cell counting analysis
SR = test: Growth inhibition of human SR cells after 48 hrs by cell counting analysis
HOP-62 = test: Growth inhibition of human HOP62 cells after 48 hrs by cell counting analysis
SNB-75 = test: Growth inhibition of human SNB75 cells after 48 hrs by cell counting analysis
EKVX = test: Growth inhibition of human EKVX cells after 48 hrs by cell counting analysis
UO-31 = test: Growth inhibition of human UO31 cells after 48 hrs by cell counting analysis
SF-295 = test: Growth inhibition of human SF295 cells after 48 hrs by cell counting analysis
Malme-3M = test: Growth inhibition of human MALME-3M cells after 48 hrs by cell counting analysis

Cc1ccc(-c2csc(NC(=O)CN3CCN(C)CC3)n2)cc1
growth inhibition (GI) (SK-MEL-2): <10%
growth inhibition (GI) (SF-268): <10%
growth inhibition (GI) (HCT-116): <10%
growth inhibition (GI) (LOX IMVI): <10%
growth inhibition (GI) (T47D): <10%
growth inhibition (GI) [1]: <10%
growth inhibition (GI) (PC-3): <10%
growth inhibition (GI) (U-251): <10%
growth inhibition (GI) (K562): 11.4%
growth inhibition (GI) (MDA-MB-435): <10%
growth inhibition (GI) (TK-10): <10%
growth inhibition (GI) (MOLT-4): 13.4%
growth inhibition (GI) (UACC-257): <10%
growth inhibition (GI) (OVCAR-3): <10%
growth inhibition (GI) (HCT-15): <10%
growth inhibition (GI) (HT-29): <10%
growth inhibition (GI) (NCI-H522): <10%
growth inhibition (GI) (CAKI-1): 12%
growth inhibition (GI) (SK-MEL-5): <10%
growth inhibition (GI) (ACHN): <10%
growth inhibition (GI) (MDA-MB-468): <10%
growth inhibition (GI) (IGROV-1): <10%
growth inhibition (GI) (OVCAR-8): <10%
growth inhibition (GI) (RXF 393): <10%
growth inhibition (GI) (KM12): <10%
growth inhibition (GI) (UACC-62): <10%
growth inhibition (GI) (A549): <10%
growth inhibition (GI) (HCC 2998): <10%
growth inhibition (GI) (BT-549): 12.8%
growth inhibition (GI) (HOP-92): <10%
growth inhibition (GI) (NCI-H23): <10%
growth inhibition (GI) (OVCAR-5): <10%
growth inhibition (GI) (HL-60): <10%
growth inhibition (GI) (RPMI-8226): <10%
growth inhibition (GI) (SNB-19): <10%
growth inhibition (GI) (NCI-H226): <10%
growth inhibition (GI) (M14): <10%
growth inhibition (GI) (SW-620): <10%
growth inhibition (GI) [2]: <10%
growth inhibition (GI) (CCRF-CEM): <10%
growth inhibition (GI) (SF-539): <10%
growth inhibition (GI) (OVCAR-4): <10%
growth inhibition (GI) (MCF7): 12.7%
growth inhibition (GI) (MDA-MB-231): 34.2%
growth inhibition (GI) (SK-OV-3): <10%
growth inhibition (GI) (SN12C): 10.4%
growth inhibition (GI) (SK-MEL-28): <10%
growth inhibition (GI) (SR): <10%
growth inhibition (GI) (HOP-62): <10%
growth inhibition (GI) (SNB-75): 42.2%
growth inhibition (GI) (EKVX): <10%
growth inhibition (GI) (UO-31): 19.9%
growth inhibition (GI) (SF-295): <10%
growth inhibition (GI) (Malme-3M): <10%
